These results are taken from ChEMBL document CHEMBL1158755, “Bromophenols coupled with derivatives of amino acids and nucleosides from the red alga Rhodomela confervoides” (J Nat Prod, 2005).

Broadly, the IC50 is the concentration that inhibits the measured activity by half. In general, MIC50 refers to an inhibitory concentration at the 50% level, which refers to growth in some studies and to a panel of isolates in others. A higher MIC50 goes with lower susceptibility.

For one assay, the system named is BGC-823. Description: Cytotoxicity against human BGC823 cells by MTT assay. It is filed as functional, cell-based. In general terms: Tetrazolium dyes change colour on reduction, which living cells bring about.
The next assay relates to MCF7. Description: Cytotoxicity against human MCF7 cells by MTT assay. It is filed as functional, cell-based.
The subject of a further assay is Escherichia coli. Description: Antibacterial activity against Escherichia coli. It is filed as functional.
A further assay has as its system A549. Description: Cytotoxicity against human A549 cells by MTT assay. It is filed as functional, cell-based.
Another assay has as its system HCT-8. Description: Cytotoxicity against human HCT8 cells by MTT assay. It is filed as functional, cell-based.
The next assay concerns Candida albicans. Briefly: Antifungal activity against Candida albicans after 24 hrs. It is filed as functional.
A further assay concerns Bel-7402. Briefly: Cytotoxicity against human Bel7402 cells by MTT assay. It is filed as functional, cell-based.
Another assay has as its system Staphylococcus aureus. Briefly: Antibacterial activity against Staphylococcus aureus. It is filed as functional.

`COC(=O)C1CCC(=O)N1Cc1cc(O)c(O)c(Br)c1Cc1cc(O)c(O)c(Br)c1Br` (configuration not stated): the IC50 in the assay on BGC-823, in the assay with MCF7, in the assay with A549, in the assay on HCT-8 and with Bel-7402 was above 10 µg/mL each time. In addition, the MIC50 in the assay on Escherichia coli, against Candida albicans and against Staphylococcus aureus was above 100 µg/mL each time.

Regarding `O=C(O)C1CCC(=O)N1Cc1cc(O)c(O)c(Br)c1Br` (configuration not stated), the half-inhibitory concentration (IC50) with BGC-823, in the assay on MCF7, with A549, in the assay on HCT-8 and with Bel-7402 was above 10 µg/mL throughout. Also, the MIC50 with Escherichia coli, against Candida albicans and in the assay on Staphylococcus aureus was above 100 µg/mL throughout.

With `OC[C@H]1O[C@@H](n2cnc3cnc(NCc4cc(O)c(O)c(Br)c4Br)nc32)[C@H](O)[C@@H]1O`, the IC50 in the assay with BGC-823, in the assay on MCF7, in the assay on A549, in the assay on HCT-8 and in the assay with Bel-7402 was above 10 µg/mL throughout. Further, the MIC50 against Escherichia coli, in the assay with Candida albicans and in the assay with Staphylococcus aureus was above 100 µg/mL each time.

Consider `COC(=O)C1CCC(=O)N1Cc1cc(O)c(O)c(Br)c1Br` (configuration not stated), for which the 50% inhibitory concentration (IC50) in the assay on BGC-823, in the assay on MCF7, with A549, in the assay with HCT-8 and in the assay on Bel-7402 was above 10 µg/mL each time. For the same compound, the MIC50 in the assay with Escherichia coli, against Candida albicans and with Staphylococcus aureus was above 100 µg/mL each time.
